Laboratory results taken from patent US20050049294A1, “Methods of using [3.2.0] heterocyclic compounds and analogs thereof” (priority 2003, published 2005).
Like-named read-outs stand apart in the source and are kept apart here.

Experiments:
[1] = tested on: DU 145 cells; assay: Cell growth inhibition (resazurin, 48 hours), DU 145; format: cell-based, human; conditions: for EC50: read-out: EC50 (nM), mean ± SD
[2] = tested on: HEK293 cells; assay: Cell growth inhibition (resazurin, 48 hours), HEK293; format: cell-based; conditions: Table 2, HEK293, human embryonic kidney, read-out: EC50 (nM), mean ± SD
[3] = tested on: MIA PaCa-2 cells; assay: Cell growth inhibition (resazurin, 48 hours), MIA PaCa-2; format: cell-based; conditions: Table 2, MIA PaCa-2, human pancreatic carcinoma, read-out: EC50 (nM), mean ± SD
[4] = tested on: PANC-1 cells; assay: Cell growth inhibition (resazurin, 48 hours), PANC-1; format: cell-based; conditions: Table 2, PANC-1, human pancreatic carcinoma, read-out: EC50 (nM), mean ± SD
[5] = LogD7.4 determination; conditions: pH 7.4
Source text: (§1) These studies consisted of solubility assessment, LogD^7.4 determination and a preliminary screen to detect cytochrome P450 enzyme inhibition.

[6] = target: CYP1A2 (Homo sapiens, UniProt P05177); assay: Preliminary P450 inhibition screen, CYP1A2
Chain of CYP1A2 (P05177 whole entry): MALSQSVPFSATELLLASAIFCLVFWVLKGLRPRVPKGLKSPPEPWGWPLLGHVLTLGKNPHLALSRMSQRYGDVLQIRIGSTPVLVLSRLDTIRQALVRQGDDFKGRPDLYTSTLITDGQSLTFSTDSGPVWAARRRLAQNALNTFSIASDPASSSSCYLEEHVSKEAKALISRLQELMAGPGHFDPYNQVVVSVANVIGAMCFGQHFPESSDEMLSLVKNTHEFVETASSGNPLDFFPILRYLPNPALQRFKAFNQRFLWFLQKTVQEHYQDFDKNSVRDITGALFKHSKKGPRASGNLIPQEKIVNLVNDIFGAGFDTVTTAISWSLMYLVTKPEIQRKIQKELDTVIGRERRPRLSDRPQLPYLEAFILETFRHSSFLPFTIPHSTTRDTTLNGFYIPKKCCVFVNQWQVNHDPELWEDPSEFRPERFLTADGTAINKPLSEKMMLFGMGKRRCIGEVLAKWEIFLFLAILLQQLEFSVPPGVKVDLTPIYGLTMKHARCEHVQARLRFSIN
Source text: as §1

[7] = tested on: PARP and Pro-Caspase 3 cleavage in PC-3 cells; assay: Cleavage of PARP and Pro-Caspase 3 (western blot), PC-3; format: cell-based, human; conditions: 100 nM, 0, 8 or 24 hours
Procedure: Total protein lysates were made and 20 μg of the lysates were then resolved under reducing/denaturing conditions and blotted onto nitrocellulose. The blots were then probed with anti-PARP or anti-caspase 3 antibodies followed by stripping and reprobing with an anti-actin antibody.

[8] = in vitro; conditions: mouse
[9] = Cytotoxicity / growth inhibition, summary over several cell lines; conditions: human, mouse
[10] = tested on: tumor cell lines; assay: as above; conditions: 48 h, read-out: EC50 values against RPMI 8226 and the prostate cell lines

**Q.** What does the source list for `C[C@@]12OC(=O)[C@]1([C@@H](O)[C@@H]1C=CCCC1)NC(=O)[C@@H]2CCCl` [Formula II-16, Salinosporamide A]?
**A.** EC50 ([1]; Homo sapiens, Table 6, DU 145 (n = 3)): 37 ± 10 nM; EC50 ([1]; Table 2, DU 145, human prostate carcinoma, 48 hours): 37 ± 10 nM; % cytotoxicity, mean ± SD ([1]; Table 6, DU 145 (n = 3)): 75 ± 4%; EC50 [2]: 47 nM; EC50 [3]: 46 nM; EC50 [4]: 60 nM; LogD7.4 [5]: 2.4; inhibition at 10 µM [6]: 3%; cleavage of PARP [7]: noticeable at 24 hours; cleavage of Pro-Caspase 3 [7]: not detected; viability at […] [8]: 96%; EC50 at 48 h [9]: 0.01 to 0.2 µM; EC50 [10]: 0.01 to 0.037 µM
